6 compounds from US12173002B2, “PRMT5 inhibitors and methods of use” (SHANGHAI APEIRON THERAPEUTICS COMPANY LIMITED, priority 2022, dated 2024) can be followed below.

In data set [1] the test system is HCT-116 MTAP(−/−) deficient cells. Nature of the data set: Inhibitory activity on proliferation of HCT-116 MTAP(−/−) deficient cells (Cell-Titer Glo, 8 days). In kind it is cell-based. Particulars: Homo sapiens, HCT-116, 192 h, 8 days incubation. The method, then:
Test 1: Compound's inhibitory activity on proliferation of HCT-116 MTAP(−/−) deficient cells. P Materials and Cells: HCT-116 MTAP(−/−) deficient cells obtained from Kyinno Bio (China); RPMI-1640 medium, fetal bovine serum, and penicillin-streptomycin purchased from Thermo Fisher Scientific (America); 384-well plates from PerkinElmer (America); Cell-Titer Glo assay kit from Promega (America).
Cell Culture: HCT116 MTAP(−/−) deficient cells were cultured in RPMI 1640 medium containing 10% fetal bovine serum and 1% penicillin-streptomycin at 37° C., 5% CO2. Only cells in logarithmic growth phase were used for experiments.
Cell Proliferation Inhibition Assay: The compound's inhibitory activity on HCT-116 MTAP(−/−) deficient cells was assessed using the Cell-Titer Glo assay kit. Adjusting cell concentration, 40 μL was seeded into a 384-well plate and cultured overnight at 37° C., 5% CO2. Each well received 40 nL of the compound, achieving concentrations from 0 to 10,000 nM (starting concentration 10,000 nM, 3-fold dilution, 10 points), with 0.1% DMSO. The cell plate was incubated for 8 days at 37° C., 5% CO2. Cell-Titer Glo reagent (40 μL) was added to measure cell viability.

Data set [2] concerns HCT-116 MTAP wild-type cells. Nature of the data set: Inhibitory activity on proliferation of HCT-116 MTAP wild-type cells (Cell-Titer Glo, 8 days). In kind it is cell-based. As to conditions: Homo sapiens, HCT-116, 192 h, 8 days incubation. Here is the method:
Test 2: Compound's inhibitory activity on proliferation of HCT-116 MTAP wild-type cells.
Materials and Cells: HCT-116 MTAP wild-type cells obtained from Kyinno Bio (China); RPMI-1640 medium, fetal bovine serum, and penicillin-streptomycin purchased from Thermo Fisher Scientific (America); 384-well plates from PerkinElmer (America); Cell-Titer Glo assay kit from Promega (America).
Cell Culture: HCT116 MTAP wild-type cells were cultured in RPMI 1640 medium containing 10% fetal bovine serum and 1% penicillin-streptomycin at 37° C., 5% CO2. Only cells in logarithmic growth phase were used for experiments.
Cell Proliferation Inhibition Assay: The compound's inhibitory activity on HCT-116 MTAP wild-type cells was assessed using the Cell-Titer Glo assay kit. Adjusting cell concentration, 40 μL was seeded into a 384-well plate and cultured overnight at 37° C., 5% CO2. Each well received 40 nL of the compound, achieving concentrations from 0 to 10,000 nM (starting concentration 10,000 nM, 3-fold dilution, 10 points), with 0.1% DMSO. The cell plate was incubated for 8 days at 37° C., 5% CO2. Cell-Titer Glo reagent (40 μL) was added to measure cell viability.

Data set [3] is described as follows: Mouse pharmacokinetic experiment. The format is in vivo. Particulars: male, ICR mice, plasma. The method, then:
II. Mouse Pharmacokinetic Experiment 1. Test Compounds
(§1) The compounds used in this experiment are specific embodiments of the present invention, with reference to compound AMG473 as an example from Amgen's patent WO 2022/169948A1, identified as example 473.
ICR male mice, N=3/group; sourced from Zhejiang Vital River Laboratory Animal Technology Co., Ltd.
3. Drug Preparation and Administration
Single oral (PO) administration to ICR mice: Compounds were dissolved in dimethyl sulfoxide, added to polyethylene glycol 400 and sterile water, and then adjusted to a clear solution with a small amount of 1 mol/L hydrochloric acid. After overnight fasting, the mice were orally gavaged with a dose of 10 mg/kg.
Single intravenous (IV) administration to ICR mice: Compounds were dissolved in dimethyl sulfoxide, added to polyethylene glycol 400 and sterile water, and then adjusted to a clear solution with a small amount of 1 mol/L hydrochloric acid. After overnight fasting, the mice received tail vein injections with a dose of 3 mg/kg.
Approximately 30 μL/time point blood samples were collected via the tail vein. Potassium ethylenediaminetetraacetate was used as an anticoagulant, and samples were centrifuged at 4000 g/min for 5 minutes at 4° C. within 1 hour. Blood sampling time points were 0.0833 (IV), 0.25, 0.5, 1, 2, 4, 6, 8, 24 hours. Samples were stored in a −20° C. freezer.
Plasma samples (30 μL, 10 μL sample+20 μL blank plasma) were mixed with 200 μL ice-cold acetonitrile containing internal standards. After vortexing for 30 seconds, samples were centrifuged at 4000 g/min for 20 minutes. One hundred microliters of the supernatant were transferred to a 96-well plate, followed by the addition of 200 μL ultrapure water. After vortexing for 30 seconds, 5 μL or 10 μL were injected into LC-MS/MS for analysis.

The next data set concerns the target hERG ion channel (Homo sapiens, UniProt Q12809). Put plainly: hERG ion channel inhibition experiment (manual patch clamp, HEK293 cells). In kind it is cell-based. As to conditions: HEK293 cells stably expressing hERG, whole-cell patch clamp, n=2. The method, then: III. hERG Ion Channel Inhibition Experiment
as §1
2. Cell Line and Cell Culture
Stably expressing hERG ion channel HEK293 cell line (Catalog: K1236) was purchased from Invitrogen. This cell line was cultured in a medium containing 85% DMEM, 10% dialyzed fetal bovine serum, 0.1 mM non-essential amino acid solution, 100 U/mL penicillin-streptomycin solution, 25 mM HEPES, 5 μg/mL blasticidin, and 400 μg/mL geneticin. When the cell density reached 40%˜80% of the culture dish area, digestion was performed using trypsin, and cells were passaged three times per week. Before the experiment, cells were cultured at a density of 5×10′ in 3.5 cm culture dishes, induced with […] Doxycycline for 48 hours. Subsequently, cells were digested and seeded onto slides for subsequent manual patch clamp experiments.)
3. Experimental Procedure
• 1) Place glass slides containing HEK293 cells in the perfusion chamber of the micro-manipulation station. • 2) Under an Olympus IX71 or IX73 inverted microscope, position suitable cells in the central field of view using a ×10 objective. Locate the tip of the glass electrode in the central field. Use the micromanipulator to lower the electrode while adjusting the coarse focus spiral to slowly approach the cell. • 3) When approaching the cell rapidly, switch to a ×40 objective for observation. Fine-tune the electrode approach using the micromanipulator to gradually reach the cell's surface. • 4) Apply negative pressure to establish 1GQ seal between the electrode tip and the cell membrane. • 5) Compensate for the transient capacitance current Cfast under voltage clamp mode. Then, repeat the brief negative pressure application for membrane rupture, ultimately reaching the whole-cell recording mode. • 6) Under voltage clamp at −60 mV, compensate for slow capacitance current Cslow, cell membrane capacitance (Cm), and input membrane resistance (Ra). • 7) Once the cell is stable, change the clamping voltage to −90 mV, set the sampling frequency to 20 kHz, and the filtering frequency to 10 kHz. Leak current detection conditions involve changing the clamping voltage to −80 mV for a duration of 500 ms. • 8) The hERG current testing method is as follows: Apply a 4.8-second depolarization command voltage to depolarize the membrane potential from −80 mV to +30 mV, then instantly apply a 5.2-second repolarization voltage to reduce the membrane potential to −50 mV to remove channel inactivation, allowing observation of the hERG tail current. The peak of the tail current represents the size of the hERG current. • 9) The hERG current […] is continuously recorded for 120 seconds before administration to assess the stability of the tested cells in producing hERG currents. Only stable cells within an acceptable range are eligible for subsequent compound testing. • 10) Testing the inhibitory effect of the test compound on hERG current: First, determine the baseline of hERG current obtained in extracellular fluid containing 0.1% DMSO. After maintaining stable hERG current for at least 5 minutes, sequentially perfuse the solution containing the test compound around the cells from low to high concentrations. After each perfusion, wait for about 5 minutes to allow the compound to act on the cells and simultaneously record hERG currents. Record the last 5 hERG current values after the recorded current stabilizes, and take their average as the final current value at a specific concentration. […] Meanwhile, positive compound dofetilide is synchronously detected before and after the end of the test drug experiment using the same patch clamp system to ensure the reliability and sensitivity of the entire detection system. The above test steps will be repeated on two separate test cells (n=2). 4. Data Analysis […]

The structures appear in SMILES notation.

Sequence of hERG ion channel (Q12809 whole entry): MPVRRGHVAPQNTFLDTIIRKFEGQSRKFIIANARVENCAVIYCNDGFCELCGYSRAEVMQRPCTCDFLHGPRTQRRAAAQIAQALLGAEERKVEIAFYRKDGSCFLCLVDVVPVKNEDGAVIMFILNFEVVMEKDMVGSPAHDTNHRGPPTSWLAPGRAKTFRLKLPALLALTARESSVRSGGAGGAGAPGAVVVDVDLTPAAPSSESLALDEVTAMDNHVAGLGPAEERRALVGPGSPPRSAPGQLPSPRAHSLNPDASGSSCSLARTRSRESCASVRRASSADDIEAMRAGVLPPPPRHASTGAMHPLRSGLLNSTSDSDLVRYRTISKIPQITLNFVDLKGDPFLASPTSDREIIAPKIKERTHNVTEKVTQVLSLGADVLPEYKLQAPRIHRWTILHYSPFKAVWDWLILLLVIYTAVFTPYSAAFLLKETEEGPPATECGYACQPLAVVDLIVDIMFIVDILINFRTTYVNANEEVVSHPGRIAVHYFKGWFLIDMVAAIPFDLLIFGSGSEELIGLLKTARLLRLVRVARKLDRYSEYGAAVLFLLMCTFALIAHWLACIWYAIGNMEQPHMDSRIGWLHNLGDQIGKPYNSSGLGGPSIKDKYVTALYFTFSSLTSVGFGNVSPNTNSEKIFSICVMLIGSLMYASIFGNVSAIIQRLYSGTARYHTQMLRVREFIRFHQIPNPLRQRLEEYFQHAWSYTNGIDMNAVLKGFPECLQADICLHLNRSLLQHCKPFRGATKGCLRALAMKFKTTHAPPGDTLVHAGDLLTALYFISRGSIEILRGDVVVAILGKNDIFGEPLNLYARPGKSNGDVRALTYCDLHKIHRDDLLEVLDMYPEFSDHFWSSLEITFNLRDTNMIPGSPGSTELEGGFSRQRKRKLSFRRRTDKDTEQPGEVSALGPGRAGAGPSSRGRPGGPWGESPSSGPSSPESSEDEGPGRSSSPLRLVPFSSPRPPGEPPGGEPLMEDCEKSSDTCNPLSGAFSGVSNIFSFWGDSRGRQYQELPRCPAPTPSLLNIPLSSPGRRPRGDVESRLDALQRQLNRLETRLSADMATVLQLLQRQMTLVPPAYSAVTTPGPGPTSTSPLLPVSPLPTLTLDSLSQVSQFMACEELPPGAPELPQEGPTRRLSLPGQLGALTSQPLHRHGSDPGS

Consider `CN(C(=O)c1ccc2nc(N)c3cncn3c2c1)[C@@H]1COc2cc(S(F)(F)(F)(F)F)ccc21` (single isomer, unassigned) [Example 104], for which the 50% inhibitory concentration (IC50) in data set [1] is 0.0046 µM; in data set [2], 0.591 µM; against hERG ion channel, 1.51 µM. For the same compound, the AUC(0-t) was determined as 10.5 µg·h/mL in data set [3] (IV 3 mg/kg) and 26.5 µg·h/mL in data set [3] (PO 10 mg/kg). Moreover, the half-life is 6.1 h in data set [3] (IV 3 mg/kg) and 5.02 h in data set [3] (PO 10 mg/kg). For the same compound, the bioavailability in data set [3] (PO 10 mg/kg vs IV 3 mg/kg, read-out: Bioavailability F) was 74%.

In the case of `CN(C(=O)c1cc2c(cn1)nc(N)c1cncn12)[C@@H]1COc2cc(C(F)(F)F)ccc21` [Example 4, (S)-4-amino-N-methyl-N-(6-(trifluoromethyl)-2,3-dihydrobenzofuran-3-yl)imidazo[1,5-a] pyrido[3,4-e] pyrazine-8-carboxamide], in data set [3] (IV 3 mg/kg), the AUC(0-t) was 8.09 µg·h/mL and the half-life was 4.06 h. In data set [3] (PO 10 mg/kg), this compound had an AUC(0-t) of 21 µg·h/mL and a half-life of 2.67 h. It took 5.29 µM to reach half-maximal inhibition at hERG ion channel (IC50).

As to `[2H]C([2H])([2H])N(C(=O)c1ccc2nc(N)c3cncn3c2c1)[C@@H]1COc2cc(C(F)(F)F)ccc21` [Example 16, (S)-4-amino-N-(methyl-d3)-N-(6-(trifluoromethyl)-2,3-dihydrobenzofuran-3-yl)imidazo[1,5-a] quinoxaline-8-carboxamide], the AUC(0-t) in data set [3] (IV 3 mg/kg) came out at 9.71 µg·h/mL; in data set [3] (PO 10 mg/kg), 42.5 µg·h/mL. For the same compound, the half-life is 3.65 h in data set [3] (IV 3 mg/kg) and 3.31 h in data set [3] (PO 10 mg/kg). This compound also returned an IC50 against hERG ion channel of 2.3 µM.

For `[2H]C([2H])([2H])N(C(=O)c1cc2c(cc1F)nc(N)c1cncn12)[C@@H]1COc2cc(C(F)(F)F)ccc21` [Example 41, (S)-4-amino-7-fluoro-N-(methyl-d3)-N-(6-(trifluoromethyl)-2,3-dihydrobenzofuran-3-yl)imidazo[1,5-a] quinoxaline-8-carboxamide], the AUC(0-t) was 5.42 µg·h/mL in data set [3] (IV 3 mg/kg) and 46.3 µg·h/mL in data set [3] (PO 10 mg/kg). Also, the half-life is 4.3 h in data set [3] (IV 3 mg/kg) and 4.12 h in data set [3] (PO 10 mg/kg). The compound also returned an IC50 at hERG ion channel of 8.16 µM.

In data set [3] (IV 3 mg/kg), `CN(C(=O)c1ccc2nc(N)c3cncn3c2c1)[C@@H]1COc2cc(C(F)(F)F)ccc21` [Example 107, (S)-4-amino-N-methyl-N-(6-(trifluoromethyl)-2,3-dihydrobenzofuran-3-yl)imidazo[1,5-a] quinoxaline-8-carboxamide] had an AUC(0-t) of 11.2 µg·h/mL and a half-life of 4.53 h. For the same compound, in data set [3] (PO 10 mg/kg), the AUC(0-t) is 44.1 µg·h/mL and the half-life was 4.56 h. The IC50 against hERG ion channel is 4.5 µM.

Consider `CN(C(=O)c1ccc2nc(N)c3cncn3c2c1)[C@@H]1COc2cc(C(F)(F)C(F)(F)F)ccc21` [Example 130, (S)-4-amino-N-methyl-N-(6-(perfluoroethyl)-2,3-dihydrobenzofuran-3-yl)imidazo[1,5-a] quinoxaline-8-carboxamide], for which the AUC(0-t) was 10.8 µg·h/mL in data set [3] (IV 3 mg/kg) and 28.3 µg·h/mL in data set [3] (PO 10 mg/kg). Moreover, the half-life in data set [3] (IV 3 mg/kg) was 4.5 h; in data set [3] (PO 10 mg/kg) it was 3.34 h. On hERG ion channel, this compound showed an IC50 of 1.36 µM.
